Data set [1] concerns 293T cells. Put plainly: Cell survival rate assay (CCK-8). It counts as cell-based. As to conditions: LNP containing 1.5 μg Fluc-mRNA, 24 hours, CCK-8. Here is the method:
(§1) Cell recovery and passaging: 293T cells were recovered and cultured in culture dishes to the required cell number.
(§2) Plating: The cells in the culture dish were digested, counted, plated in a 96-well plate at 10,000 cells per well, or in a 12-well plate at 150,000 cells per well, and cultured overnight until the cells adhered to the wall.
(§3) Cell recovery and passage: The method was the same as in Example 3.
(§4) Plating: The method was the same as Example 3.
The LNP formulations containing 1.5 μg Fluc-mRNA (prepared according to Example 4, the LNP formulation carrier components are cationic lipids, neutral lipids, structured lipids and polymer-conjugated lipids at a molar ratio of 49:10:39.5:1.5, wherein the cationic lipids are the cationic lipids listed in Table 1) and the Lipofectamine 3000 formulation were added to the cell culture medium of the 96-well plate, and the culture was continued for 24 hours. Then, 10 μL of CCK-8 solution was added to each well, and the culture plate was incubated in the incubator for 1 hour, and the absorbance at 450 nm was measured by a microplate reader.

Data set [2] is described as follows: Particle size and polydispersity index (PDI) of nanolipid particles, dynamic light scattering. As to conditions: LNP formulation prepared from the named cationic lipid, 25° C. It counts as physicochemical. Here is the method:
The particle size and polydispersity index (PDI) were determined by dynamic light scattering method using a Malvern laser particle size analyzer. 10 μL of liposome solution was diluted to 1 mL with RNase-free deionized water and added to a sample pool. Each sample was measured three times. The measurement conditions were: 90° scattering angle, 25° C.

Data set [3] deals with 293T cells. Put plainly: Fluorescence detection of Fluc-mRNA (cell transfection efficiency of LNP formulations). It counts as cell-based. As to conditions: for Relative light unit (RLU): LNP containing 0.3 μg Fluc-mRNA, 24 hours; for Multiples of values that equivalent to YK-201: RLU of YK-201 / RLU of the named lipid; for Multiples of values that equivalent to YK-202: RLU of YK-202 / RLU of the named lipid; for Multiples of values that equivalent to YK-209: RLU of YK-209 / RLU of the named lipid; for Ratio relative to SM-102: RLU of the named lipid / RLU of SM-102, times that of SM-102. Here is the method:
as §1, §2, §3, §4
The LNP formulation containing 0.3 μg Fluc-mRNA (prepared according to Example 4, the LNP formulation carrier components were cationic lipids, neutral lipids, structured lipids and polymer-conjugated lipids at a molar ratio of 49:10:39.5:1.5, and the cationic lipids were cationic lipids listed in Table 1) was added to the cell culture medium of a 96-well plate, and cultured for 24 hours. After that, the corresponding reagents were added according to the instructions of the Gaussia Luciferase Assay Kit, and the fluorescence expression intensity of each well was detected by the IVIS fluorescence detection system. This experiment verified the transfection efficiency of the LNP formulation in the cell, and the specific detection results are shown in Tables 6-9.

Data set [4] is described as follows: Encapsulation rate, drug loading concentration and total RNA concentration detection (RiboGreen). It counts as physicochemical. As to conditions: LNP formulation of the named lipid. From the text:
Encapsulation rate is a key quality attribute of liposomes. It refers to the percentage of drug content encapsulated in the lipid bilayer to the total amount of drug added, which can reflect the degree of drug encapsulation in liposomes. The Chinese Pharmacopoeia stipulates that the encapsulation rate should usually not be less than 80%.
The drug loading capacity is the ratio of the amount of drug in the liposome to the total amount of drug and carrier in the liposome. The drug loading capacity directly affects the clinical application dose of the drug, so the larger the drug loading capacity, the more it can meet clinical needs. The drug loading concentration is proportional to the drug loading capacity, and the relative proportion of the drug loading concentration can represent the relative proportion of the drug loading capacity. The relative proportion of the total RNA concentration can represent the relative proportion of the amount of mRNA carried by the LNP formulation.
1×TE buffer, 0.1% Triton X-100 buffer, and RiboGreen reagent (1:200) and mRNA standard stock solution were prepared.
An appropriate amount of sample was taken and added to an appropriate amount of 1×TE buffer, which was diluted to a solution containing about 2.8 μg of the test sample per 1 mL. Then the sample was added to a 96-well plate, where 50 μL of the diluted test sample or mRNA standard stock solution was added to each well, and then added with 1×TE buffer and 0.1% Triton X-100 buffer. The samples were incubated at 37° C. for 10 minutes, and 100 μL of RiboGreen reagent (1:200) was added to each well of the 96-well plate. The plate was centrifuged, and read using an ELISA reader, and the data was processed.

Consider nine compounds from US20260007601A1, “IONIZABLE CATIONIC LIPID COMPOUND AND COMPOSITION FOR DELIVERING NUCLEIC ACID AND USE THEREOF” (BEIJING YOUCAREKECHUANG PHARMACEUTICAL TECHNOLOGY CO., LTD., priority 2023, published 2026).

SMILES strings stand for the structures.

Compound `CCCCCCCCCCOC(=O)CCCN(CCCCCC(=O)OCC(CCCCCCCC)CCCCCCCC)C(=O)SCCCN(C)C` [YK-219] had a Cell survival rate in the data set with 293T cells [1] of 58.61%. In data set [2], this compound returned a PDI of 22.4% and a Particle size of 217 nm. In the data set with 293T cells [3], the “Relative light unit (RLU)” value was 1505963 RLU, the “Multiples of values that equivalent to YK-201” value (shortened to “Multiples … to YK-201”) is listed as 18.91, the “Multiples of values that equivalent to YK-202” value (“Multiples … to YK-202” for short) worked out at 19.89 and the “Multiples of values that equivalent to YK-209” value (“Multiples … to YK-209” below) is recorded as 13.98. For the same compound, the “Ratio relative to SM-102” value in the data set on 293T cells [3] is 0.90. Further, in data set [4], the Drug loading concentration was 30.31 µg/mL, the Encapsulation rate was 64.2% and the “Total RNA concentration” value is 47.23 µg/mL.
In the data set with 293T cells [1], `CCCCCCCCCCOC(=O)CCCN(CCCCCC(=O)OCC(CCCCCCCC)CCCCCCCC)CCN(C)CCOC` [YK-216] yielded a Cell survival rate of 45.80%. In data set [2], the PDI is reported as 13.7% and the Particle size was found to be 219 nm. In the data set on 293T cells [3], the “Relative light unit (RLU)” value was found to be 2280300 RLU, the “Multiples … to YK-201” value is on record as 12.49, the “Multiples … to YK-202” value was 13.14 and the “Multiples … to YK-209” value is 9.24. Further, in the data set on 293T cells [3], the “Ratio relative to SM-102” value came to 1.37. Also, in data set [4], the Drug loading concentration is 27.36 µg/mL, the Encapsulation rate is on record as 61.3% and the “Total RNA concentration” value stood at 44.64 µg/mL.
`CCCCCCCCC(CCCCCCCC)COC(=O)CCCCCN(CCCCCC(=O)OCC(CCCCCCCC)CCCCCCCC)CCN(CCO)CCO` [YK-212, bis(2-octyldecyl)-6,6-((2-(bis(2-hydroxyethyl)amino)ethyl)azadialkyl)dihexanoate] came in with a Cell survival rate in the data set on 293T cells [1] of 35.26%. In data set [2], this compound came in with a PDI of 19.2% and a Particle size of 172 nm. In addition, in the data set with 293T cells [3], the “Relative light unit (RLU)” value stood at 3910590 RLU, the “Multiples … to YK-201” value is given as 7.28, the “Multiples … to YK-202” value is reported as 7.66 and the “Multiples … to YK-209” value is recorded as 5.39. In addition, in the data set on 293T cells [3], the “Ratio relative to SM-102” value is listed as 2.35. In data set [4], the Drug loading concentration is 40.25 µg/mL, the Encapsulation rate is 94.4% and the “Total RNA concentration” value is 42.62 µg/mL.
In the data set with 293T cells [1], `CCCCCCCCCCCOC(=O)CCCCCN(CCCCCCCC(=O)OC(CCCCCCCC)CCCCCCCC)CCN(C)CCNC` [YK-222] came in with a Cell survival rate of 33.75%. In data set [2], the PDI is 30.4% and the Particle size is 218 nm. In the data set with 293T cells [3], the “Relative light unit (RLU)” value was 606360 RLU, the “Multiples … to YK-201” value stood at 46.97, the “Multiples … to YK-202” value amounted to 49.41 and the “Multiples … to YK-209” value worked out at 34.73. Also, in the data set on 293T cells [3], the “Ratio relative to SM-102” value is listed as 0.36. For the same compound, in data set [4], the Drug loading concentration came out at 25.78 µg/mL, the Encapsulation rate stood at 94.0% and the “Total RNA concentration” value came out at 27.43 µg/mL.
Consider `CCCCCCC(CCCCCC)CCOC(=O)CCCCCN(CCCCCC(=O)OCCC(CCCCCC)CCCCCC)CCN(CCO)CCO` [YK-214, bis(3-hexylnonyl)-6,6-((2-(bis(2-hydroxyethyl)amino)ethyl)azadialkyl)dihexanoate], for which the Cell survival rate with 293T cells [1] turned out to be 25.58%. For the same compound, in data set [2], the PDI is recorded as 31.5% and the Particle size worked out at 203 nm. In addition, in the data set with 293T cells [3], the “Relative light unit (RLU)” value worked out at 4582178 RLU, the “Multiples … to YK-201” value was found to be 6.22, the “Multiples … to YK-202” value came to 6.54 and the “Multiples … to YK-209” value was 4.60. Also, the “Ratio relative to SM-102” value in the data set on 293T cells [3] is given as 2.75. For the same compound, in data set [4], the Drug loading concentration is 38.16 µg/mL, the Encapsulation rate is 96.7% and the “Total RNA concentration” value is 39.46 µg/mL.
`CCCCCCCCCCOC(=O)CCCN(CCCCCC(=O)OCC(CCCCCCCC)CCCCCCCC)CCN(CC)CCO` [YK-208] registered a Cell survival rate with 293T cells [1] of 46.68%. In data set [2], this compound came in with a PDI of 24.4% and a Particle size of 167 nm. Further, in the data set with 293T cells [3], the “Relative light unit (RLU)” value came out at 3858487 RLU, the “Multiples … to YK-201” value came out at 7.38, the “Multiples … to YK-202” value is 7.76 and the “Multiples … to YK-209” value is reported as 5.46. The “Ratio relative to SM-102” value with 293T cells [3] was 2.32. Besides, in data set [4], the Drug loading concentration was 37.80 µg/mL, the Encapsulation rate worked out at 88.2% and the “Total RNA concentration” value was 42.84 µg/mL.
Regarding `CCCCCCCCCCCOC(=O)CCCCCN(CCCCCCCC(=O)OC(CCCCCCC)CCCCCCC)CCN(CC)CCO` [YK-205], the Cell survival rate in the data set with 293T cells [1] is 58.92%. In data set [2], this compound had a PDI of 17.7% and a Particle size of 219 nm. Besides, in the data set with 293T cells [3], the “Relative light unit (RLU)” value is on record as 1029168 RLU, the “Multiples … to YK-201” value is 27.68, the “Multiples … to YK-202” value came out at 29.11 and the “Multiples … to YK-209” value came to 20.46. For the same compound, the “Ratio relative to SM-102” value in the data set with 293T cells [3] is 0.62. Besides, in data set [4], the Drug loading concentration was 30.02 µg/mL, the Encapsulation rate was found to be 68.4% and the “Total RNA concentration” value was found to be 43.92 µg/mL.
For the compound `CCCCCCC(CCCCCC)CCOC(=O)CCCCCN(CCCCCC(=O)OCCC(CCCCCC)CCCCCC)CCN(C)CCO` [YK-211, bis(3-hexylnonyl)-6,6-((2-(2-hydroxyethyl(methyl)amino)ethyl)azadialkyl)dihexanoate], the Cell survival rate in the data set with 293T cells [1] amounted to 52.30%. For the same compound, in data set [2], the PDI stood at 20.7% and the Particle size is 222 nm. Further, in the data set on 293T cells [3], the “Relative light unit (RLU)” value was 1370100 RLU, the “Multiples … to YK-201” value is 20.79, the “Multiples … to YK-202” value was found to be 21.87 and the “Multiples … to YK-209” value is reported as 15.37. Further, the “Ratio relative to SM-102” value in the data set on 293T cells [3] is given as 0.82. In data set [4], the Drug loading concentration was 42.91 µg/mL, the Encapsulation rate turned out to be 97.7% and the “Total RNA concentration” value is 43.92 µg/mL.
`CCCCCCCCCCOC(=O)CCCN(CCCCCC(=O)OCC(CCCCCCCC)CCCCCCCC)CCOC(=O)SCCCN(C)C` [YK-218, 2-octyldecyl-11-(4-(decyloxy)-4-oxobutyl)-2-methyl-7-oxo-8-oxo-6-thio-2,11-diazaheptane-17-carboxylate] displayed a Cell survival rate with 293T cells [1] of 72.84%. In data set [2], this compound showed a PDI of 17.2% and a Particle size of 222 nm. Moreover, in the data set on 293T cells [3], the “Relative light unit (RLU)” value worked out at 607080 RLU, the “Multiples … to YK-201” value was 46.92, the “Multiples … to YK-202” value is on record as 49.35 and the “Multiples … to YK-209” value amounted to 34.69. Besides, in the data set on 293T cells [3], the “Ratio relative to SM-102” value came out at 0.36. Moreover, in data set [4], the Drug loading concentration is 36.50 µg/mL, the Encapsulation rate is 78.2% and the “Total RNA concentration” value amounted to 46.66 µg/mL.
